# According to ChEMBL document CHEMBL3098052, “Chemical synthesis and tyrosinase inhibitory activity of rhododendrol glycosides” (Bioorg Med Chem Lett, 2014):
# Assays:
# Tyrosinase = target: T1, Tyrosinase (Agaricus bisporus, UniProt O42713); test: Inhibition of mushroom tyrosinase using L-DOPA as substrate assessed as dopachrome formation after 5 mins by spectrophotometry
# T1 sequence (O42713 whole entry): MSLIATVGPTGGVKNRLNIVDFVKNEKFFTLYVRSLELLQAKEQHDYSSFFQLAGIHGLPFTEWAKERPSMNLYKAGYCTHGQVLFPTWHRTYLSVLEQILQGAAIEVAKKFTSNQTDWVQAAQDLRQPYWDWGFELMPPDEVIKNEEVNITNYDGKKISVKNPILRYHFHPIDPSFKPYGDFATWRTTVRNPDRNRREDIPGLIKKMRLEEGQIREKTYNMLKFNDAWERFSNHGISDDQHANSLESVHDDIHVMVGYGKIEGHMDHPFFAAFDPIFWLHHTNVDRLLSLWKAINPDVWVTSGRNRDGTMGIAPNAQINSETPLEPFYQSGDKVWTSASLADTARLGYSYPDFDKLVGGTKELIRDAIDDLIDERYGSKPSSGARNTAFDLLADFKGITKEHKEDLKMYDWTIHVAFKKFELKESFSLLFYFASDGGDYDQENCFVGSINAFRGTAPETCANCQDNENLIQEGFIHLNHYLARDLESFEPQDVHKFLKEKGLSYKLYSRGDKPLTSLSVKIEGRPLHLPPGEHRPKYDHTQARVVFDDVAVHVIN
# [1] = target: T2, Tyrosinase (Agaricus bisporus) (UniProt O42713); test: Ratio of kojic acid IC50 to compound IC50 for mushroom tyrosinase
# T2 sequence (whole entry): T1 sequence (O42713 whole entry)
IC50 (Tyrosinase) [µM],Ratio IC50 [1],Structure (SMILES)
4.56,–,C[C@@H](CCc1ccc(O)cc1O)O[C@@H]1OC[C@@H](O)[C@H](O)[C@H]1O
1.51,6,C[C@H](CCc1ccc(O)cc1O)O[C@@H]1O[C@H](CO)[C@@H](O[C@@H]2O[C@H](CO)[C@@H](O)[C@H](O)[C@H]2O)[C@H](O)[C@H]1O
3.83,–,C[C@@H](CCc1ccc(O)cc1O)O[C@@H]1O[C@H](CO)[C@@H](O[C@@H]2O[C@H](CO)[C@@H](O)[C@H](O)[C@H]2O)[C@H](O)[C@H]1O
4.72,–,C[C@@H](CCc1ccc(O)cc1O)O[C@@H]1O[C@H](CO)[C@@H](O)[C@H](O)[C@H]1O
2.3,–,C[C@H](CCc1ccc(O)cc1O)O[C@@H]1O[C@H](CO)[C@@H](O)[C@H](O)[C@H]1O
1.72,–,C[C@H](CCc1ccc(O)cc1O)O[C@@H]1OC[C@@H](O)[C@H](O)[C@H]1O
0.56,–,CCCCCCc1ccc(O)cc1O [HEXYLRESORCINOL]
